# Experimental data: patent publication US12582693B2, “Glutathione trisulfide (GSSSG) in neuroprotection” (The General Hospital Corporation, priority 2020, dated 2026)
# Columns and labels:
# SH-SY5Y cells = experiment: MPP+-induced SH-SY5Y cell death, cell viability by crystal violet assay; format: cell-based; conditions: MPP+ 2 mM, DMEM/F12 (20% FBS), 37° C., 24 h
# Procedure: The effects of GSSSG on 1-methyl-4-phenylpyridinium (MPP+)-induced neuronal (SH-SY5Y cell) death were evaluated. MPP+-poisoning is an in vitro model of Parkinson's disease.
# SH-SY5Y cells were incubated with or without MPP+ (2 mM) in DMEM/F12 (20% FBS) with or without drugs at 37° C. for 24 h. Cell viability was measured using the crystal violet assay.
# mice subjected to SCI = experiment: Murine model of spinal cord ischemia (SCI) with delayed paraplegia; motor function by Basso Mouse Scale and survival after preconditioning; format: in vivo; conditions: preconditioning 200 mg/kg IP daily for 4 days in DMSO, vs DMSO alone
# Procedure: Briefly, under anesthesia and mechanical ventilation via endotracheal intubation, SCI was induced by placing the first clip on the aortic arch between the left common carotid artery and the left subclavian artery and the second clip on the origin of the left subclavian artery. The completeness of the occlusion was ascertained by an immediate and sustained loss of any detectable pulse pressure in the femoral artery pressure tracing. After 5 min of ischemia, the clips were removed, and the chest was closed in layers. At 10 minutes of reperfusion, the arterial catheter was removed, incisions were closed, and animals were allowed to recover from anesthesia. Temperature of erector spinae muscle was monitored and maintained at 37.5° C. during whole surgery until recovery from anesthesia. In sham-operated mice, whole surgical procedure was performed as described, but no clips were applied. Motor function was quantified serially at pre-SCI, 24, 48, and 72 h after spinal cord ischemia by the Basso Mouse Scale (BMS) (Basso et al., 2006; Kakinohana et al., 2011). The maximum deficit is indicated by a score of 0. Although BMS score<6 (0 to 5) indicates paraplegia, BMS score>6 (6 to 9) indicates ability to walk.
# To examine preventive effects of GSSSG against neurofunctional deficit after SCI, mice were subjected to preconditioning with GSSSG treatment before induction of SCI. […]
Structure (SMILES),Protection from MPP+-induced cell death (cell viability) (SH-SY5Y cells),"Motor function (Basso Mouse Scale, BMS) / paraplegia after SCI (mice subjected to SCI; SCI 24 h after last administration, BMS up to 72 h)",Survival rate of mice after SCI (mice subjected to SCI)
"N[C@@H](CCC(=O)N[C@@H](CSSSC[C@H](NC(=O)CC[C@H](N)C(=O)O)C(=O)NCC(=O)O)C(=O)NCC(=O)O)C(=O)O [GSSSG, Glutathione trisulfide]",protective effect,prevented motor functional deficit and paraplegia,did not change survival rate
"[Na+].[Na+].[S-2] [Na2S, reference compound]","but not Na2S, protected",–,–
